The values below come from patent US20130137760A1, “GAMBOGIC AMINE, A SELECTIVE TRKA AGONIST WITH NEUROPROTECTIVE ACTIVITY” (EMORY UNIVERSITY, priority 2007, published 2013).

In one series the test system is hippocampus. Description: Kainic acid-elicited neuronal cell death in mouse brain (TUNEL, hippocampus). To be noted: KA alone, quantitative analysis of apoptosis. It is filed as in vivo, C57BL/6 mice. The text has this: Kainic acid (KA) is a potent agonist for the AMPA receptor. Peripheral injections of KA result in recurrent seizures and the subsequent degeneration of select populations of neurons in the hippocampus (Nadler et al., 1980; Schauwecker and Steward, 1997; Sperk et al., 1983). It has been shown that the activation of caspase-3 is a necessary component of KA-induced cell death (Faherty et al., 1999). To explore whether test compounds can block the neurotoxicity initiated by KA, the compounds can be subcutaneously injected (for example, at a concentration of 2 mg/kg) into C57BL/6 mice, followed by 25 mg/kg KA. In 5 days, the mice can be perfused and the brains cut to a thickness of 5 μm and mounted on slides.
Kainic acid (KA) is a potent agonist for the AMPA receptor. Peripheral injections of KA result in recurrent seizures and the subsequent degeneration of select populations of neurons in the hippocampus (Nadler et al., 1980; Schauwecker and Steward, 1997; Sperk et al., 1983). It has been shown that the activation of caspase-3 is a necessary component of KA-induced cell death (Faherty et al., 1999). To explore whether gambogic amines can block the neurotoxicity initiated by KA, one can subcutaneously inject 2 mg/kg of a gambogic amine into C57BL/6 mice, followed by 25 mg/kg KA. In 5 days, the mice can be perfused and the brains were cut to a thickness of 5 μm and mounted on slides. TUNEL staining can reveal whether KA provokes enormous apoptosis in the hippocampus, and whether this effect is substantially diminished by the gambogic amine.
Male C57BL/6 mice aged of 60 days can be injected subcutaneously (s.c.) with a single dose of either 30% ethanol in saline or KA (25 mg/kg) (Sigma, Mo.) or the gambogic amine (2 mg/kg) followed by KA. Animals can be continually monitored for 2 h for the onset of seizure activity. At 5 days following treatment, animals can be anesthetized and perfused with 4% paraformaldehyde in 0.1 M phosphate buffered saline. Brains can be removed, post-fixed overnight and processed for paraffin embedding. […]

In series [1] the test system is T17 cells (TrkA stably transfected SN56 cells). Description: Cell-based apoptotic assay: protection of TrkA-expressing T17 cells from staurosporine-initiated apoptosis, MR(DEVD)2 caspase-3 dye. More on the design: species or system murine. To be noted: for apoptosis inhibitory activity in T17 cells: 0.5 μM pre-incubation, then 1 μM STS for 9 h, compared with NGF. The source says: In order to identify small molecules that mimic NGF and activate TrkA, we developed a cell-based apoptotic assay using a cell permeable fluorescent dye MR([…])2, which turns red upon caspase-3 cleavage in apoptotic cells. We utilized a murine cell line T17, which was derived from basal forebrain SN56 cells. T17 cells are TrkA stably transfected SN56 cells. The candidates selectively protecting T17 but not SN56 cells from the first round screen can then be subjected to neurite outgrowth assay for the secondary screen. The positive compounds can be analyzed for TrkA tyrosine phosphorylation, Akt and MAP kinases signaling cascade activation.
T17 cells can be cultured in 96-well plates and preincubated with 10 μM compounds for 30 min, followed by 1 μM staurosporine (STS) treatment for 9 h. MR(DEVD)2 can be introduced to the cells 1 h before examination under fluorescent microscope. The apoptotic cells are red, while live cells have no signal. […] Using the caspase-3-activated fluorescent dye as a visual assay, one can screen the gambogic amine compounds.
To compare the apoptosis inhibitory activity of various compounds, one can pre-incubate gambogic amines derivatives (0.5 μM) with T17 and SN56 cells, followed by 1 μM STS for 9 h. Quantitative analysis of the apoptosis inhibitory activities can determine whether the compounds protect SN56 cells from apoptosis.
T17 cells can be seeded in a 96-well plate at 10,000 cells/well in 100 μl complete medium. Cells can be incubated overnight, followed by 30 min pretreatment with 10 μM compounds in DMSO (10 mM stock concentration from The Spectrum Collection library). The cells can then be treated with 1 μM Staurosporine for 9 h. One h before the termination of the experiment, 10 μM MR(DEVD)2, a cell permeable caspase-3-activated fluorescent dye can be introduced. Cells can be fixed with 4% paraformaldehyde for 15 min. Cells can then be washed with PBS and incubated with 1 μg/ml of Hoechst 33342 for 10 min. Cover slides can then be washed with PBS, mounted, and examined using a fluorescence microscope.

For series [2] the following is noted: Kasibhatla et al., 2005; cited from earlier work.
A further series has as its system PC12 cells. Description: Neurite outgrowth in PC12 cells. The class given is cell-based. Particulars: after 5 days of treatment. As to the method:
One of most prominent neurotrophic effects of NGF is to trigger neurite outgrowth in neuronal cells and incur differentiation. […] The cell medium containing the compounds can be replenished every other day. […] The gambogic amine compounds can similarly be evaluated for their ability to induce evident neurite outgrowth in PC12 cells. Dose-dependent assays can reveal whether 10-50 nM of gambogic amines are sufficient to provoke substantial neurite sprouting in PC12 cells.

The test system of the next series is TrkA. Description: TrkA tyrosine phosphorylation in primary hippocampal neurons, anti-phospho-TrkA Y490 immunoblot. The class given is cell-based. To be noted: 30 min. The text has this:
NGF binds to receptor TrkA and elicits its dimerization and autophosphorylation on tyrosine residues. Numerous tyrosine residues on TrkA are phosphorylated upon NGF stimulation. For example, Y490 phosphorylation is required for Shc association and activation of MAP kinase signaling cascade. Y751 phosphorylation is essential for PI 3-kinase docking and activation. To evaluate whether gambogic amine compounds can also trigger TrkA tyrosine phosphorylation, one can treat primary hippocampal neurons with various drugs at 0.5 μM for 30 min. The cell lysates can be analyzed by immunoblotting with anti-phospho-TrkA Y490 antibody. […] To explore whether gambogic amines can trigger TrkA dimerization, one can cotransfect GFP-TrkA and HA-TrkA into HEK293 cells, and treat the cells with 0.5 μM gambogic amine for 30 min. Communoprecipitation assays can be used to determine whether gambogic amines provoke TrkA dimerization even more strongly than NGF. One can also evaluate whether the gambogic amines also elicit tyrosine phosphorylation in TrkA but not in TrkB or C receptors.
For orientation: In western blotting, separated proteins are transferred to a membrane and probed.

In another series the test system is Erk1/2 and Akt. Description: Erk1/2 and Akt phosphorylation in T17 cells, immunoblot. The class given is cell-based, murine. To be noted: 30 min. As to the method: (§1) NGF triggers PI 3-kinase/Akt and Ras/MAP Kinase signaling cascades activation through the TrkA receptor. […] The cell lysates can be analyzed by immunoblotting with anti-phospho-Erk1/2 and phospho-Akt-473 antibodies, respectively. […] One can also extend the assays into primary hippocampal neurons. […] Time course assay with hippocampal neurons can show whether gambogic amines (0.5 μM) elicit Akt phosphorylation after 5 min treatment, and whether Akt activation increases after 10 min and is sustained for 60 min. One can also determine whether the gambogic amines provoke Akt activation in a dose-dependent manner.

The test system of another series is Akt. Description: Akt activation in primary hippocampal neurons. It is filed as cell-based. Here is the method:
as §1

Take `C=C(C)[C@H]1CN[C@H](C(=O)O)[C@H]1CC(=O)O` [KA, Kainic acid]: in the series on hippocampus (CA1 region), the “cell death in the CA1 region of the hippocampus” value worked out at 47%. In addition, the “cell death in the CA3 region of the hippocampus” value with hippocampus (CA3 region) stood at 57%.
For `CC(C)=CCCC1(C)C=Cc2c(O)c3c(c(CC=C(C)C)c2O1)OC12C(=CC4CC1C(C)(C)OC2(C/C=C(/C)C(=O)O)C4O)C3=O` (centres unmarked) [dihydrogambogic acid], the “apoptosis inhibitory activity in T17 cells” value (“apoptosis inhibitory activity” for short) in series [1] is listed as “strongly suppress apoptosis in T17 cells with protective activities even stronger than NGF”.
For the compound `COC(=O)/C(C)=C\CC12OC(C)(C)C3CC(C=C4C(=O)c5c(OC)c6c(c(CC=C(C)C)c5OC431)OC(C)(CCC=C(C)C)C=C6)C2=O` (centres unmarked) [dimethyl gambogate], in series [1], the “apoptosis inhibitory activity” value is on record as “strongly suppress apoptosis in T17 cells with protective activities even stronger than NGF”.
In the case of `CC(C)=CCC[C@]1(C)C=Cc2c(O)c3c(c(CC=C(C)C)c2O1)O[C@]12C(=C[C@@H]4C[C@H]1C(C)(C)O[C@@]2(C/C=C(/C)C(=O)O)C4=O)C3=O` [gambogic acid, Gambogic Acid], in series [1], the “apoptosis inhibitory activity” value is given as “strongly suppress apoptosis in T17 cells with protective activities even stronger than NGF”. Further, the “Kd of association with Transferrin” value in series [2] is 2200 nM.
With “NGF: nerve growth factor, binds mainly TrkA; positive control, from Roche”, the “red (apoptotic) cell numbers compared to DMSO control” value in series [1] (positive control, 1 μM staurosporine for 9 h, MR(DEVD)2 dye) is recorded as “substantially decreases the red cell numbers”. The “neurite sprouting in PC12 cells” value with PC12 cells is “pronounced neurite sprouting”. Besides, the “TrkA phosphorylation (Y490)” value in the series on TrkA is on record as “induces potent TrkA phosphorylation”. The “Erk1/2 and Akt phosphorylation” value with Erk1/2 and Akt was “stimulates demonstrable Erk1/2 and Akt phosphorylation”. For the same compound, in the series with Akt, the Akt activation result is “evidently activates Akt”.
